According to patent US5837687A, “Azapeptide derivative” (Fujirebio Inc., priority 1994, dated 1998):
Where two headings read alike, the source gives them in different places. Peptide text beside a SMILES is read from it. * marks the point of attachment. Boc = CC(C)(C)OC(=O)*; OBn = c1ccc(CO*)cc1

Columns and labels:
[1] = biological target: T1, NKA receptor (Mesocricetus auratus, UniProt P51144); experiment: Activity to constriction of hamster respiratory tracts caused by NKA (isolated tissue, tension); type: cell-based
T1 construct: from tissue; host or cells: hamster respiratory tract (trachea) ring specimens
T1 sequence (P51144 1-384): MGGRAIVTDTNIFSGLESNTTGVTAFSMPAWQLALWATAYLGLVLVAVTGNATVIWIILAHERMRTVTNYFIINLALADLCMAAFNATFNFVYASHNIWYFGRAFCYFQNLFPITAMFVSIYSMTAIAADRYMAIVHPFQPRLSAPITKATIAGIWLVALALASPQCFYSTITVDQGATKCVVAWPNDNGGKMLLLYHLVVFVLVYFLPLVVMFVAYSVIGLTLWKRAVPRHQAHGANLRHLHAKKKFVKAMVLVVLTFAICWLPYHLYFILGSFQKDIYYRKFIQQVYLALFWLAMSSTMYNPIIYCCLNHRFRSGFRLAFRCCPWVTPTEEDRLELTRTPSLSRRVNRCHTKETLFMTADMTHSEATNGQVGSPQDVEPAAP
Procedure: The activity of the azapeptide derivative of the present invention to a NKA receptor was evaluated by the following method.
(1) Activity to constriction of hamster respiratory tracts caused by NKA
Respiratory tracts were taken out from male Syrian strain Golden hamsters having a body weight of 100 to 180 g, and cyclic specimens having a width of 3 to 6 mm were prepared. The specimens were incubated at 37° C. and suspended by loading a static tension of 0.5 g, in a reaction tank charged with 15 ml of a Tyrode solution (137 mM of NaCl, 2.7 mM of KCl, 1.8 mM of CaCl2, 1.02 mM of MgCl2, 11.9 mM of NaHCO3, 0.42 mM of NaH2 PO4 and 5.5 mM of glucose) in which 95% O2 -5% CO2 had been passed.
The compound to be tested was charged into the reaction tank and maintained for 5 minutes. 1×10^-7 M of NKA was charged into the reaction tank, and tension caused thereby was recorded. The examined effect of the tested compound as an antagonist was shown by IC50.

[2] = biological target: T2, NKA receptor (Cavia porcellus, UniProt Q64077); experiment: Activity to constriction of guinea pig respiratory tracts caused by NKA (in vivo, excess air amount); details: anesthetized guinea pigs, cervical vein; for Controlling rate (%) 1 min: 2 nmol/kg NKA given 1 min after test compound; for Controlling rate (%) 15 min: 2 nmol/kg NKA given 15 min after test compound
T2 construct: Male Hartley strain guinea pigs having a body weight of 350 to 500 g were anesthetized; from tissue; host or cells: whole anaesthetized guinea pig (airways, in vivo)
T2 sequence (Q64077 1-402): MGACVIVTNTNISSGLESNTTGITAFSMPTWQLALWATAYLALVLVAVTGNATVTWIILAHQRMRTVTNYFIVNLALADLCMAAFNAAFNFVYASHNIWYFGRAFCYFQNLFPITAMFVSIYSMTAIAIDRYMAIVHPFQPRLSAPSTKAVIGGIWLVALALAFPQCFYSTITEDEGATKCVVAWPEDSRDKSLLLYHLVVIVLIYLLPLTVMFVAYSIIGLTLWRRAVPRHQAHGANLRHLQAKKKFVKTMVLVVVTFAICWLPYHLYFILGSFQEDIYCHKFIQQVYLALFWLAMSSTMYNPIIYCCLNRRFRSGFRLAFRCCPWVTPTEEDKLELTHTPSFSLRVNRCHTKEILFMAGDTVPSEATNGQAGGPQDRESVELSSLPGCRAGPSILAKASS
Procedure: (2) Activity to constriction of guinea pig respiratory tracts caused by NKA
Male Hartley strain guinea pigs having a body weight of 350 to 500 g were anesthetized by administering 1.5 g/kg of urethane into abdominal cavities thereof. Cannulas made of polyethylene were inserted into cervical veins and respiratory tracts. From the cervical vein cannulas, 1 mg of gallamine was administered to stop respiration. The respiratory tract cannulas were connected to a respirator, and artificial respiration was carried out with an air-supplying amount at one time of 4 to 6 ml and an air-supplying frequency of 70 times/min. Side branches of the respiratory tract cannulas were introduced into a water tank, and a hydraulic pressure of 8 cm H2 O was loaded. Excess air amounts exceeding the above hydraulic pressure and discharged were measured. From the cervical vein cannulas, 2 nmol/kg of NKA was administered, each compound to be tested was administered after 15 minutes, and further 2 nmol/kg of NKA was administered after 1, 15, 30, 45 and 60 minutes, respectively. The increased amounts of excess air after the respective NKA administrations were measured, and percentages relative to the increased amounts of excess air when the respiratory tracts were completely closed were determined, which were defined as respiratory constriction rates. The decreased ratios of the respiratory constriction rates after administering the compounds to be tested to the respiratory constriction rates before administering the compounds to be tested were shown by percentages, which were defined as controlling rates. The controlling rates were regarded as an effect of the compound to be tested as an antagonist.

[3] = mole concentration giving 50% control of tension caused by 1×10^-7 M NKA, compound maintained 5 minutes, hamster respiratory tract specimens, read-out: IC50

| Compound | IC50 [1] [nM] | also measured |
| --- | --- | --- |
| NC(=O)C[C@H](NC(=O)OCc1ccccc1)C(=O)N[C@@H](Cc1c[nH]c2ccccc12)C(=O)NN(Cc1ccccc1)C(=O)NCCOCc1ccccc1 [Example 12, Z-Asn-Trp-AzPhe-NH(CH2)2 OCH2 Ph] | 4.5 | Controlling rate (%) 1 min [2]: 19.5%; Controlling rate (%) 15 min [2]: 73.2%; Controlling rate (%) 30 min ([2]; 2 nmol/kg NKA given 30 min after test compound): 62.2%; Controlling rate (%) 45 min ([2]; 2 nmol/kg NKA given 45 min after test compound): 54.8%; Controlling rate (%) 60 min ([2]; 2 nmol/kg NKA given 60 min after test compound): 51.7% |
| CC(C)(C)OC(=O)N[C@@H](CCC(N)=O)C(=O)N[C@@H](Cc1c[nH]c2ccccc12)C(=O)NN(Cc1ccc(F)cc1)C(=O)NCCOCc1ccccc1 [Example 30 (2), Boc-Gln-Trp-AzPhe(4-F)-NH(CH2)2 OCH2 Ph] | 1.1 |  |
| CC(C)(C)NC(=O)N[C@@H](CCC(N)=O)C(=O)N[C@@H](Cc1c[nH]c2ccccc12)C(=O)NN(Cc1ccc(F)cc1)C(=O)NCCOCc1ccccc1 [Example 31, t-Bu-NHCO-Gln-Trp-AzPhe(4-F)-NH(CH2)2 OCH2 Ph] | 0.42 |  |
| COc1ccc(CNC(=O)N(Cc2ccc(OCc3ccccc3)cc2)NC(=O)[C@H](Cc2c[nH]c3ccccc23)NC(=O)[C@H](CCC(N)=O)NC(=O)OC(C)(C)C)c(OC)c1 [Example 32 (2), Boc-Gln-Trp-AzTyr(CH2 Ph)-NHDmob] | 7700 |  |
| Cc1ccccc1CN(NC(=O)[C@H](Cc1c[nH]c2ccccc12)NC(=O)[C@H](CCC(N)=O)NC(=O)NC(C)(C)C)C(=O)NCCOCc1ccccc1 [Example 33 (3), t-Bu-NHCO-Gln-Trp-AzPhe(2-Me)-NH(CH2)2 OCH2 Ph] | 0.16 |  |
| Cc1cccc(CN(NC(=O)[C@H](Cc2c[nH]c3ccccc23)NC(=O)[C@H](CCC(N)=O)NC(=O)NC(C)(C)C)C(=O)NCCOCc2ccccc2)c1 [Example 34 (3), t-Bu-NHCO-Gln-Trp-AzPhe(3-Me)-NH(CH2)2 OCH2 Ph] | 3.9 |  |
| Cc1ccc(CN(NC(=O)[C@H](Cc2c[nH]c3ccccc23)NC(=O)[C@H](CCC(N)=O)NC(=O)NC(C)(C)C)C(=O)NCCOCc2ccccc2)cc1 [Example 35 (3), t-Bu-NHCO-Gln-Trp-AzPhe(4-Me)-NH(CH2)2 OCH2 Ph] | 0.82 |  |
| CC(C)c1ccc(CN(NC(=O)[C@H](Cc2c[nH]c3ccccc23)NC(=O)[C@H](CCC(N)=O)NC(=O)NC(C)(C)C)C(=O)NCCOCc2ccccc2)cc1 [Example 36 (3), t-Bu-NHCO-Gln-Trp-AzPhe(4-iPr)-NH(CH2)2 OCH2 Ph] | 69 |  |
| Cc1ccc(CN(NC(=O)[C@H](Cc2c[nH]c3ccccc23)NC(=O)[C@H](CCC(N)=O)NC(=O)NC(C)(C)C)C(=O)NCCOCc2ccccc2)c(C)c1 [Example 37 (3), t-Bu-NHCO-Gln-Trp-AzPhe(2,4-diMe)-NH(CH2)2 OCH2 Ph] | 0.27 |  |
| Cc1ccc(C)c(CN(NC(=O)[C@H](Cc2c[nH]c3ccccc23)NC(=O)[C@H](CCC(N)=O)NC(=O)NC(C)(C)C)C(=O)NCCOCc2ccccc2)c1 [Example 38 (3), t-Bu-NHCO-Gln-Trp-AzPhe(2,5-diMe)-NH(CH2)2 OCH2 Ph] | 0.68 |  |
| CC(C)(C)NC(=O)N[C@@H](CCC(N)=O)C(=O)N[C@@H](Cc1c[nH]c2ccccc12)C(=O)NN(Cc1ccccc1F)C(=O)NCCOCc1ccccc1 [Example 39 (3), t-Bu-NHCO-Gln-Trp-AzPhe(2-F)-NH(CH2)2 OCH2 Ph] | 0.61 |  |
| CC(C)(C)NC(=O)N[C@@H](CCC(N)=O)C(=O)N[C@@H](Cc1c[nH]c2ccccc12)C(=O)NN(Cc1ccccc1C(F)(F)F)C(=O)NCCOCc1ccccc1 [Example 40 (3), t-Bu-NHCO-Gln-Trp-AzPhe(2-CF3)-NH(CH2)2 OCH2 Ph] | 0.31 |  |
| CC(C)(C)NC(=O)N[C@@H](CCC(N)=O)C(=O)N[C@@H](Cc1c[nH]c2ccccc12)C(=O)NN(Cc1ccccc1)C(=O)NCCOCc1ccc2ccccc2c1 [Example 41 (3), t-Bu-NHCO-Gln-Trp-AzPhe-NH(CH2)2 O-(2-naphthylmethyl)] | 20 |  |
| CC(C)(C)NC(=O)N[C@@H](CCC(N)=O)C(=O)N[C@@H](Cc1c[nH]c2ccccc12)C(=O)NN(Cc1ccccc1)C(=O)NCCOCc1cccnc1 [Example 42 (3), t-Bu-NHCO-Gln-Trp-AzPhe-NH(CH2)2 O-(3-pyridylmethyl)] | 16 |  |
| CC(C)(C)NC(=O)N[C@@H](CCC(N)=O)C(=O)N[C@@H](Cc1c[nH]c2ccccc12)C(=O)NN(Cc1ccccc1)C(=O)NCCOC(c1ccccc1)c1ccccc1 [Example 44 (2), t-Bu-NHCO-Gln-Trp-AzPhe-NH(CH2)2 O-benzhydryl] | 230 |  |
| CC(C)(C)OC(=O)N[C@@H](CC(=O)OCc1ccccc1)C(=O)N[C@@H](CCC(N)=O)C(=O)N[C@@H](Cc1c[nH]c2ccccc12)C(=O)N[C@@H](Cc1ccccc1)C(N)=O [Reference example 14, Boc-Asp(OBzl)-Gln-Trp-Phe-NH2, reference compound] (Boc-D(OBn)QWF-NH2) |  | IC50 [1, 3]: 330 nM |
| Ac-LDQWFG-NH2 [Reference example 13, Ac-Leu-Asp-Gln-Trp-Phe-Gly-NH2, reference compound] |  | IC50 [1, 3]: 22 nM; Controlling rate (%) 1 min [2]: 11.9%; Controlling rate (%) 15 min [2]: 3.9% |
